The results in this text go back to ChEMBL document CHEMBL4177672 (Bioorg Med Chem Lett, 2017).

One series concerns Vero. Nature of the series: Cytotoxicity against African green monkey Vero cells after 72 hrs by MTS-PMS assay. It counts as cell-based. As to conditions: Chlorocebus sabaeus. (Formazan colour is commonly taken as a measure of viable cells.)
The test system of series [1] is Mycobacterium tuberculosis. Nature of the series: Growth inhibition of Mycobacterium tuberculosis H37Rv under aerobic condition after 4 days by MABA method. It counts as functional. As to conditions: 96 h.
Series [2] has as its system Mycolicibacterium smegmatis. Briefly: Antitubercular activity against Mycobacterium smegmatis ATCC 607 incubated at 37 degC for 7 days by resazurin dye based fluorometry. It is filed as functional. As to conditions: ATCC 607, 168 h.
The subject of another series is Homo sapiens. Briefly: Terminal half life in healthy human subjects dosed as single 400 mg dose on Day 1 followed by PK sampling (Days 1 to 14). It counts as ADME, organism-based. As to conditions: in vivo.

Values after ≈ are worked out from the molar mass of the structure shown.

As to `COc1nc2ccc(Br)cc2cc1[C@@H](c1ccc(N(C)C)nc1)[C@@](O)(CCN(C)C)c1cccc(F)c1`, the IC50 (usually the point on the concentration scale where inhibition reaches its midpoint) with Vero was above 10 mg/L.

In turn, `COc1nc2ccc(Br)cc2cc1[C@@H](c1cccnc1N(C)C)[C@@](O)(CCN(C)C)c1cccc(F)c1` yielded an IC50 in the series on Vero above 10 mg/L.

The molecule `COc1nc2ccc(Br)cc2cc1[C@@H](c1cc(C)c(C)s1)[C@@](O)(CCN(C)C)c1cccc(F)c1` yielded an IC50 with Vero above 10 mg/L.

With `COc1nc2ccc(Br)cc2cc1[C@@H](c1cncc(C)c1)[C@@](O)(CCN(C)C)c1cccc(F)c1`, in the series with Vero, the IC50 was above 10 mg/L.

Molecule `COc1nc2ccc(Br)cc2cc1[C@@H](c1ccnc(OC)c1OC)[C@@](O)(CCN(C)C)c1cccc(C#N)c1` displayed an IC50 in the series with Vero above 10 mg/L.

`CCSc1ccc([C@H](c2cc3cc(Br)ccc3nc2OC)[C@@](O)(CCN(C)C)c2cccc(F)c2)cn1`: the IC50 in the series on Vero is above 10 mg/L.

With `COc1nc2ccc(Br)cc2cc1[C@@H](c1ccnc(OC)c1OC)[C@@](O)(CCN(C)C)c1cccc(C)c1`, the IC50 in the series on Vero is above 10 mg/L.

In the series on Vero, `COc1nc2ccc(Br)cc2cc1[C@@H](c1ccnc(OC)c1OC)[C@@](O)(CCN(C)C)c1cccc(OC(F)F)c1` yielded an IC50 above 10 mg/L.

As to `COc1cc([C@H](c2cc3cc(Br)ccc3nc2OC)[C@@](O)(CCN(C)C)c2cccc(F)c2)cnc1OC`, the IC50 in the series with Vero was above 10 mg/L.

As to `COc1ncccc1C(c1cc2cc(Br)ccc2nc1OC)C(O)(CCN(C)C)c1cccc2c1OCO2` (mixture of isomers), in series [1], the MIC90 (commonly the lowest concentration that inhibits either 90% of growth or 90% of the strains tested, depending on the study) is 0.24 mg/L.

On to `COc1nc2ccc(Br)cc2cc1C(c1ccoc1)C(O)(CCN(C)C)c1ccccc1` (racemic), for which the IC90 (as a rule, the concentration needed for an effect of 90%) in series [2] was in the range of 0.06 to 1.57 mg/L (≈ 0.121 to 3.17 µM).

Regarding `COc1nc2ccc(Br)cc2cc1[C@@H](c1ccccc1)[C@@](O)(CCN(C)C)c1cccc2ccccc12` [BEDAQUILINE], the beta t1/2 in the series on Homo sapiens was 5 to 6 months. In the series on Vero, this molecule gave an IC50 above 10 mg/L.
